Measured values: patent publication US20020035146A1, “Antifungal compounds and compositions and antifungal use thereof” (priority 2000, published 2002)

Assays:
Septoria nodorum = assay type: cell-based; settings: spore suspension, 25° C., 2 days, compound encapsulated in α-cyclodextrin (0.14% by weight)
Pythium ultimum = assay type: cell-based; settings: mycelial homogenate, 25° C., 2 days, compound encapsulated in α-cyclodextrin (0.14% by weight)
Pyricularia oryzae = assay type: cell-based; settings: spore suspension, 25° C., 5 days, compound encapsulated in α-cyclodextrin (0.14% by weight)
[1] = test system: Colletotrichum lagenarium; assay type: cell-based; settings: spore suspension, 25° C., 5 days, compound encapsulated in α-cyclodextrin (0.14% by weight)
Phytophthora capsici = assay type: cell-based; settings: spore suspension, 25° C., 5 days, compound encapsulated in α-cyclodextrin (0.14% by weight)
Botrytis cinerea spores = test: Inhibition of germination of Botrytis cinerea spores (germination-associated adhesion in microtiter plates, sulforhodamine B); assay type: cell-based; settings: B. cinerea spores in SDB, 25° C., 5.5 hours; compound 1 encapsulated in α-cyclodextrin (0.14% by weight)
Protocol: Compounds were evaluated for the ability to inhibit germination of Botrytis cinerea spores using an assay which measures the inhibition of germination-associated adhesion in microtiter plates. […] This solution was then diluted with SDB to give a solution concentration of compound 2 of 1000 ppm. Comparison compound, AVG, was dissolved in SDB at 5 mg/ml. Two-fold serial dilutions of the solutions of these compounds in SDB were made in 100 μl aliquots of SDB in 96-well microtiter plates. Spore suspension of B. cinerea (100 μl at 2×10^5 spores/ml) was added to the wells. The plates were then incubated at 25° C. for 5.5 hours at which time spores in control wells had germinated. The medium containing unbound spores was removed by inverting and flicking the microtiter plate to remove as much liquid as possible. Quantitation of the adhered spores was achieved by measuring their cellular protein content using sulforhodamine B (see Skehan et al., Journal of the National Cancer Institute, 82, 1107-1112 (1990)), measuring absorbance at 564 nm. Inhibition of adhesion was determined by comparing the absorbance value in a well containing fungicide with the absorbance in control wells without fungicide. EC50 values for germination inhibition were determined from dose-response curves.

[2] = test system: Botrytis rot on rose petals; test: Suppression of Botrytis rot on rose petals; assay type: in vivo; settings: white rose petals exposed to 100 ppm in the gas phase for 90 minutes before inoculation; assessed after 10 days; two trials combined; control 66.7
Protocol: Freshly cut white roses were purchased from Zieger & Sons, Inc. rose growers. Non senescing petals were chosen to perform the experiment. Petals were placed in plastic petri dishes (100×20 mm) each containing a moist #3 Whatman filter paper with one petal per petri dish.
Compound 1, formulated as in Example 1 (0.778 g) was dissolved in 20 ml hot water in a 100 ml jar sealed with a cap. When the powder was dissolved, the jar was placed in a 4.8 liter cabinet containing three petri dishes (without the lids) with petals. The cap of the jar was quickly removed and the cabinets sealed for ninety (90) minutes. The concentration of Compound 1 in the gas phase was 100 ppm.
After exposure to Compound 1 at 100 ppm the petals were inoculated with two 20μl drops of spore suspension containing 1×10^6 spores per ml. Controls were inoculated without prior exposure to Compound 1.
Lids were placed on the petri dishes and the dishes were transferred to a plant growth chamber set at a 12 hour photoperiod, a 20° C. day temperature and 18° C. night temperature, and 70% relative humidity to allow disease development. The number of petals with sporulating lesions was determined after 10 days. Two trials were conducted with 3 petals per treatment in each trial. The combined results from the two trials were as follows: […]

Botrytis cinerea = test: Technical material v. formulation: inhibition of fungal growth in sealed vials (sulforhodamine B); assay type: cell-based; settings: technical material added in acetone, 16 hours
Protocol: Since compound 1 is a gas at room temperature its activity as a technical material in solution was evaluated in sealed vials with a small head space as follows. Compound 1, formulated by encapsulation in a-cyclodextrin, was also tested for comparison.
Compound 1 (technical material) was added to 21×50 mm glass vials on dry ice as the appropriate amount of a 14% (w/v) solution in acetone to provide the desired concentrations. (The acetone solutions were kept on dry ice or in a freezer at −80° C. until used.) Controls received the same volumes of acetone alone. A spore suspension (8 ml) of Botrytis cinerea at 2.5×10^4 spores/ml in two-fold diluted SDB was added to each vial. The vials were immediately sealed with polyethylene plugs and placed in a […] incubator for 16 hours. The extent of fungal growth in the vials was determined by measuring their cellular protein content using sulforhodamine B (Skehan, et al., Journal of the National Cancer Institute 82, 1107-1112 (1990)), and the percent inhibition of growth was calculated by comparing growth in the treatments with growth in the controls.
The desired amounts of Compound 1, formulated by encapsulation in α-cyclodextrin ([…]) were added to glass vials. A spore suspension (8 ml) of Botrytis cinerea at 2.5×10^4 spores/ml in two-fold diluted SDB was added to each vial, and vials processed as described above.

Rhizoctonia solani = assay type: cell-based; settings: mycelial homogenate, 25° C., 5 days, compound encapsulated in α-cyclodextrin (0.14% by weight)

Structure (SMILES)	EC50 (mycelial growth) (Septoria nodorum) [ppm]	EC50 (mycelial growth) (Pythium ultimum) [ppm]	EC50 (mycelial growth) (Pyricularia oryzae) [ppm]	EC50 (mycelial growth) [1] [ppm]	EC50 (mycelial growth) (Phytophthora capsici) [ppm]	EC50 for germination inhibition (Botrytis cinerea spores) [ppm]	Petals with sporulating lesions (%) [2] [%]	% Inhibition of growth (Botrytis cinerea; 175 ppm) [%]	% Inhibition of growth (Botrytis cinerea; 350 ppm) [%]	% Inhibition of growth (Botrytis cinerea; 525 ppm) [%]	EC50 (mycelial growth) (Rhizoctonia solani) [ppm]
CC1=CC1 [Compound 1, 1-methylcyclopropene]	22.5	2.6	6.7	>70	6.9	37	16.7	30.1	99.4	99.8	7.4
CCCCCCCCC1=CC1(F)F [Compound 2, 1-n-octyl-3,3-difluorocyclopropene]						3.3					
